Measurements: ChEMBL document CHEMBL4196241, “Auranthine, a Benzodiazepinone from Penicillium aurantiogriseum: Refined Structure, Absolute Configuration, and Cytotoxicity” (J Nat Prod, 2018)
Calls of active or inactive are those of the source. The calls are words filed in the database; no cut-off is given here.

How the values were obtained:
HepG2 [1] = assay: Cytotoxicity against human HepG2 cells assessed as reduction in cell viability up to 100 uM by CCK8 assay; type: functional, cell-based
Homo sapiens [2] = species on record: Homo sapiens; assay: (§1) Cytotoxicity against human IHKE cells assessed as reduction in cell viability by CCK8 assay; type: functional, cell-based
Homo sapiens [3] = species on record: Homo sapiens; assay: Cytotoxicity against human IHKE cells assessed as reduction in cell viability up to 100 uM by CCK8 assay; type: functional, cell-based
[4] = as §1; type: functional, cell-based
HepG2 [5] = assay: Cytotoxicity against human HepG2 cells assessed as reduction in cell viability at 100 uM by CCK8 assay relative to control; type: functional
HepG2 [6] = assay: Cytotoxicity against human HepG2 cells assessed as reduction in cell viability by CCK8 assay relative to control; type: functional, cell-based

Row | SMILES | Activity (HepG2 [1]) | Activity (Homo sapiens [2]) | Activity (Homo sapiens [3]) | IC50 [4] | Activity (HepG2 [5]) | Activity (HepG2 [6])
1 | CN1C(=O)c2ccccc2N2C(=O)c3ccccc3N[C@@H]2[C@@H]1CCC#N | inactive | Dose-dependent effect | – | – | – | –
2 | N#CCC[C@@H]1NC(=O)c2ccccc2N2C(=O)c3ccccc3N[C@H]12 | inactive | – | inactive | – | – | –
3 | N#CCC[C@@H]1NC(=O)c2ccccc2-n2c1nc1ccccc1c2=O | inactive | – | inactive | – | – | –
4 | C=CC(C)(C)c1[nH]cnc1/C=C1\NC(=O)[C@H](C(C)C)NC1=O | – | – | – | 25 µM | <=56% | Dose-dependent effect
